Values joined by “and” are separate entries in the source; they are usually repeats but may differ in a detail not shown here. Identical values can stand only once.
Assay: Δ-9-tetrahydrocannabinol content in milk of a dairy cow fed hemp blossoms
Type: in vivo
Conditions: dairy cow fed 14 kg/day feed in two rations, 50 g ensiled hemp blossoms per ration; milk samples one week after initiation of feeding plan
Excerpt: A dairy cow with a medium milk production was fed over a time period of two weeks with a daily feed amount of 14 kg/day, divided up into two rations, 50 g of hemp blossoms having been added to each ration. The hemp blossoms used consisted of the upper part of pistillate hemp plants which were harvested in a way analogous to that employed for harvesting corn. The material was processed by a corn chaff cutter and underwent an ensilage step. The rest of the fodder was normal cattle feed (Total Mix Ratio, TMR) as is commonly provided in agriculture to cows for milk production. The content of Δ-9-tetrahydrocannabinol active substance in milk samples obtained one week after initiation of the feeding plan was determined to be 0.15 mg/l and 0.63 mg/l. The measurements were carried out in an accredited laboratory (Swiss testing STS 017, EN 45001, GMP).

CCCCCc1cc(O)c2c(c1)OC(C)(C)[C@@H]1CCC(C)=C[C@@H]21 [Δ-9-tetrahydrocannabinol]
content of Δ-9-tetrahydrocannabinol active substance in milk samples: 0.15 mg/L and 0.63 mg/L

— patent US20030194450A1, “Method of producing a preparation containing active substances from cannabis” (priority 2002, published 2003)
